Here are results for one compound from patent US9649313B2, “Use of ITK inhibitors for the treatment of cancer” (The University of North Carolina at Chapel Hill, priority 2012, dated 2017).

One assay has as its target T1, ITK (Homo sapiens, UniProt Q08881).
T1 construct: purchased Carna Biosciences
T1 sequence (Q08881 1-620): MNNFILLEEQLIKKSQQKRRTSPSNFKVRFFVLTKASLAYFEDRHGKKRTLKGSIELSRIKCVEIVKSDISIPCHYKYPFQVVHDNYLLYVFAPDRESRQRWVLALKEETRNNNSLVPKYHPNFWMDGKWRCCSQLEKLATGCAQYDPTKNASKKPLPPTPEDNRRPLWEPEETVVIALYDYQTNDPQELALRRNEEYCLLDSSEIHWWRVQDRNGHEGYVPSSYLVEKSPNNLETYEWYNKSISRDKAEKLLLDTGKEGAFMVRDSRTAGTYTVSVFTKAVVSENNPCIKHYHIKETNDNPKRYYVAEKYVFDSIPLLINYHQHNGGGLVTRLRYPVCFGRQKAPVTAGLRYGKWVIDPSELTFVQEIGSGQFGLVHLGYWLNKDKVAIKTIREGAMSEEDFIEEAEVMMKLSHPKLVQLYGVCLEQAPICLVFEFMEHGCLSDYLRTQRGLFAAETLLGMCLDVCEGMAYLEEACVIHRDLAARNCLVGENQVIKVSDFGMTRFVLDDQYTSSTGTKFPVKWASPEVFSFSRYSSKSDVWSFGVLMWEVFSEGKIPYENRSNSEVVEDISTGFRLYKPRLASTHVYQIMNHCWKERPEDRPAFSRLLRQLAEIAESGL
The conditions noted are these: Riether et al., 2009, cited from earlier work.

Assay [1] concerns the target T2, phosphorylated (active) form of ITK in RPMI 8322 cells (Homo sapiens, UniProt Q08881).
T2 construct: endogenous in cells; host or cells: RPMI 8322 human melanoma cells
The assay is described as follows: two-dimensional electrophoresis and western blot of ITK isoforms. In kind it is cell-based. The conditions noted are these: RPMI 8322 cells treated for 3 days. The source says: Therefore, alternatively, we performed two-dimensional electrophoresis on whole cell lysates obtained from RPMI 8322 cells that had been treated with phosphatase or different concentrations of BI 10N for 3 days prior to harvest followed by western blot analysis using the ITK antibody. In untreated RPMI 8322 cells, two charge isoforms that migrated with the appropriate weight for ITK were identified by immunoblot analysis. […] These observations indicate that the formation of the phosphorylated (active) form of ITK is inhibited in the presence of ≧25 nM of BI 10N (data not shown).

The target in the next assay is T3, ABL (Homo sapiens, UniProt P00519).
T3 construct: purchased Carna Biosciences
In words: cell-free kinase assay. In kind it is biochemical. The source says:
(§1) We investigated the potency and selectivity of BI 10N against 56 kinases using a cell-free assay (Table 8A). […] The selectivity of this inhibitor was investigated by testing the potency of the inhibitor at two concentrations with 53 kinases by Carna Biosciences (MA) (Table 2).

For the next assay, the target named is T4, LCK (Homo sapiens, UniProt P06239).
T4 construct: purchased Carna Biosciences
The assay is described as follows: cell-free kinase assay. In kind it is biochemical.
Description: as §1

The next assay has as its target T5, FGFR1 (Homo sapiens, UniProt P11362).
T5 construct: purchased Carna Biosciences
In words: cell-free kinase assay. The class given is biochemical.
Description: as §1

A further assay addresses T6, TRKC (Homo sapiens, UniProt Q16288).
T6 construct: purchased Carna Biosciences
In words: cell-free kinase assay. In kind it is biochemical.
Description: as §1

The target in another assay is T7, IGF1R (Homo sapiens, UniProt P08069).
T7 construct: purchased Carna Biosciences
In words: cell-free kinase assay. In kind it is biochemical.
Description: as §1

In the next assay the target is T8, FYN (Homo sapiens, UniProt P06241).
T8 construct: purchased Carna Biosciences
In words: cell-free kinase assay. In kind it is biochemical. The conditions noted are these: Table 2, by Carna Biosciences.
Description: as §1

The target in another assay is T9, TRKA (Homo sapiens, UniProt P04629).
T9 construct: purchased Carna Biosciences
The assay is described as follows: cell-free kinase assay. The class given is biochemical.
Description: as §1

The next assay concerns PMWK (ITKLO) cells. In words: cell cycle analysis (EdU, FxCycle Violet). In kind it is cell-based, Human. As to conditions: 3 days of treatment. The procedure:
(§2) FIG. 5A-5C. Effects of BI 10N inhibitor on proliferation and motility of melanoma cells. FIG. 5A) Cell motility assays were performed as described in FIG. 4A-4E; however, the inhibitor BI 10N was added to the media to decrease ITK kinase activity in parental cell lines instead of using the shRNA ITK knockdown cell lines. BI 10N was added to the media 24 hours prior to the start of the motility assay and the VivaView camera system was used to image cellular motility of the melanoma cells as described previously. FIG. 5B) The proliferation assays were completed as described in FIG. 4A-4E, substituting the BI 10N compound for the shRNA. Cells were trypsinized and counted using the Invitrogen Countess. Fifty thousand cells were placed into each well of a 6 well plate and BI 10N was added to the indicated concentrations. The cells were counted with the Invitrogen Countess at 3, 5, and 6 or 7 days after plating to assess the proliferation rates of the different cell lines in the presence of BI 10N. FIG. 5C) Both ITKHI (RPMI 8322) and ITKLO (PMWK) melanoma cell lines were grown in the presence of BI 10N (10-200 nM) in soft agar. In 24-well cell culture plates 2,500 cells per well were added to a 1.4% agarose solution. The agarose and cell solution was then poured on top of a solidified base agar. The cells were incubated at 37° C. for three to four weeks to ensure adequate growth before analysis. FIG. 5D) Cell cycle analysis of PMWK, VMM 39, and RPMI 8322 cells that have been treated with increasing concentrations of BI 10N. Following 3 days of BI 10N treatment, the cells were incubated with EdU for 3 hours and were subsequently assessed for 5-ethynyl-2′-deoxyuridine (EdU) incorporation rate and DNA content with FxCycle Violet. Shown in this panel are the percentages of cells in G0/G1 (low DNA and EdU content), S (high EdU and low-to-medium DNA content), and G2/M (Low EdU and high DNA content)
(§3) Melanoma cells were grown to approximately 60% confluence in T25 tissue culture flasks (Corning Product #430639). […]

The subject of another assay is RPMI 8322 (ITKHI) cells. In words: cell cycle analysis (EdU, FxCycle Violet). In kind it is cell-based, Human. The conditions noted are these: 3 days of treatment, dose-dependent. The procedure:
as §2, §3

The subject of another assay is VMM 39 (ITKHI) cells. In words: cell cycle analysis (EdU, FxCycle Violet). The class given is cell-based, Human. As to conditions: 3 days of treatment, dose-dependent. The protocol:
as §2, §3

pEC50, pIC50: −log10 of the molar value.

T9 sequence (P04629 33-796): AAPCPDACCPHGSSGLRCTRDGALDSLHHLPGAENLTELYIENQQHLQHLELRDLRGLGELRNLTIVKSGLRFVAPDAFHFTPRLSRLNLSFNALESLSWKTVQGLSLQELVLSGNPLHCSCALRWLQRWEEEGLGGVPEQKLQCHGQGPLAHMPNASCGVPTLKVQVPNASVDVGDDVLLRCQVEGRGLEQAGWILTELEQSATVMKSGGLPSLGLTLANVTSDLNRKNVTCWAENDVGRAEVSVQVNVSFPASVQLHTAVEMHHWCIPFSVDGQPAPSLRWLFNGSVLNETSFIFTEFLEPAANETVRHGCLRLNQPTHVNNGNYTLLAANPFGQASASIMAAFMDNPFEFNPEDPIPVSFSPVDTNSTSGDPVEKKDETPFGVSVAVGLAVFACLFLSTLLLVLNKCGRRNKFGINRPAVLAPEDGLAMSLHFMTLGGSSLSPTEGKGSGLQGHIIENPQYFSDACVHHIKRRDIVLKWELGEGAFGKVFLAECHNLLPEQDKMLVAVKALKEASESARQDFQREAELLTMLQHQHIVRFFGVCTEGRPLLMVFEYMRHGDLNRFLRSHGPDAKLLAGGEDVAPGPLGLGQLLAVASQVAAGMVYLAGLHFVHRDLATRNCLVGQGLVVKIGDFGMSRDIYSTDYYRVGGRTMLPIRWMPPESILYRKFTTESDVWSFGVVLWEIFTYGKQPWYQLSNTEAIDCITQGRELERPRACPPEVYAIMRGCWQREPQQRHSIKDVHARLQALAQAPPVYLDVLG
T4 sequence (P06239 whole entry): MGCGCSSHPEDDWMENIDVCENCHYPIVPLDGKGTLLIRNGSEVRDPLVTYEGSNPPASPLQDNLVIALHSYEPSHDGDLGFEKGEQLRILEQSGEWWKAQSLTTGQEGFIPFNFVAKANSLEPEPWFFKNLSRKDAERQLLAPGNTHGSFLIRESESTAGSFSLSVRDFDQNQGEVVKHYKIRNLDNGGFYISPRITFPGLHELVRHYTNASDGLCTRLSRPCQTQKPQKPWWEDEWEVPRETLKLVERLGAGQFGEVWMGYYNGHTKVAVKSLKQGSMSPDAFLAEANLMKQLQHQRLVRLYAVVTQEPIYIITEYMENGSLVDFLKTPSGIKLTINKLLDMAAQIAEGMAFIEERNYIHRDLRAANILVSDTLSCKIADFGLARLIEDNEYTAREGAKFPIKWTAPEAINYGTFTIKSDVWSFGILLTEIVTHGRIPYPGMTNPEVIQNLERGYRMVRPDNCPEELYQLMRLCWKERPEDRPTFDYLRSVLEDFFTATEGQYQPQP
T7 sequence (P08069 31-1367): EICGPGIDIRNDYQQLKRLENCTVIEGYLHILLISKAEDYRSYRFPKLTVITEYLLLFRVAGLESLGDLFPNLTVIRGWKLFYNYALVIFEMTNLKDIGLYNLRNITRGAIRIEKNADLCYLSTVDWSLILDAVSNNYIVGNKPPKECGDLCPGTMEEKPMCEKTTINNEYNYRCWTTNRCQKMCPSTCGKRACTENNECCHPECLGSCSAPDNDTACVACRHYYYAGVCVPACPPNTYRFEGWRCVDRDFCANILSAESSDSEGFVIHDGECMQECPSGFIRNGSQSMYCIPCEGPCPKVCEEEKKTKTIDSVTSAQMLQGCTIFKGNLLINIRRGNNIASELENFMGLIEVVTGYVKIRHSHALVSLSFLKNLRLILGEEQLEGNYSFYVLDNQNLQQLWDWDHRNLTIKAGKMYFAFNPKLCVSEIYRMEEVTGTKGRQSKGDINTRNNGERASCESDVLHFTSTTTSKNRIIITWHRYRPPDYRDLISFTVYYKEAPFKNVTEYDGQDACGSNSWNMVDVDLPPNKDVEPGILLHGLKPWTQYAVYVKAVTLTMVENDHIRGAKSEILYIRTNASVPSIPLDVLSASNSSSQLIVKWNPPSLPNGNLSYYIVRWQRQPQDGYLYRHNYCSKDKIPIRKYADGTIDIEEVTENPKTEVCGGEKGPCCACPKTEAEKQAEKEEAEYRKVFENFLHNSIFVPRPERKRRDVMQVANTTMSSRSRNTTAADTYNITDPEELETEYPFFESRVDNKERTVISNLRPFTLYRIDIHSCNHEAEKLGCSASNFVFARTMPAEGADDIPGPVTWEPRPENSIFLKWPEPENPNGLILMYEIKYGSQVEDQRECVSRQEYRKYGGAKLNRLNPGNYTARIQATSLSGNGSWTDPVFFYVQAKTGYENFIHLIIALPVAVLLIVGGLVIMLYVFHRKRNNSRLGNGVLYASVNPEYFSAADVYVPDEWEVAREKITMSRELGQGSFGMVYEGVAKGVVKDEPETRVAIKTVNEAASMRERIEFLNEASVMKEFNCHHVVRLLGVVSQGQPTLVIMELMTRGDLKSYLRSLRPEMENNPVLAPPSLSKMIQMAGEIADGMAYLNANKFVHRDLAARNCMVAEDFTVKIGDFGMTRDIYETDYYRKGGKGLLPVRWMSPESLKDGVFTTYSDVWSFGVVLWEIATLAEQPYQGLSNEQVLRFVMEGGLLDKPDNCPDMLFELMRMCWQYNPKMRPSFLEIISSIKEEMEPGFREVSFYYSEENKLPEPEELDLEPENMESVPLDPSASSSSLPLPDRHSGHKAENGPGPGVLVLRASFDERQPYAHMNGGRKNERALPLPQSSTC
T3 sequence (P00519 whole entry): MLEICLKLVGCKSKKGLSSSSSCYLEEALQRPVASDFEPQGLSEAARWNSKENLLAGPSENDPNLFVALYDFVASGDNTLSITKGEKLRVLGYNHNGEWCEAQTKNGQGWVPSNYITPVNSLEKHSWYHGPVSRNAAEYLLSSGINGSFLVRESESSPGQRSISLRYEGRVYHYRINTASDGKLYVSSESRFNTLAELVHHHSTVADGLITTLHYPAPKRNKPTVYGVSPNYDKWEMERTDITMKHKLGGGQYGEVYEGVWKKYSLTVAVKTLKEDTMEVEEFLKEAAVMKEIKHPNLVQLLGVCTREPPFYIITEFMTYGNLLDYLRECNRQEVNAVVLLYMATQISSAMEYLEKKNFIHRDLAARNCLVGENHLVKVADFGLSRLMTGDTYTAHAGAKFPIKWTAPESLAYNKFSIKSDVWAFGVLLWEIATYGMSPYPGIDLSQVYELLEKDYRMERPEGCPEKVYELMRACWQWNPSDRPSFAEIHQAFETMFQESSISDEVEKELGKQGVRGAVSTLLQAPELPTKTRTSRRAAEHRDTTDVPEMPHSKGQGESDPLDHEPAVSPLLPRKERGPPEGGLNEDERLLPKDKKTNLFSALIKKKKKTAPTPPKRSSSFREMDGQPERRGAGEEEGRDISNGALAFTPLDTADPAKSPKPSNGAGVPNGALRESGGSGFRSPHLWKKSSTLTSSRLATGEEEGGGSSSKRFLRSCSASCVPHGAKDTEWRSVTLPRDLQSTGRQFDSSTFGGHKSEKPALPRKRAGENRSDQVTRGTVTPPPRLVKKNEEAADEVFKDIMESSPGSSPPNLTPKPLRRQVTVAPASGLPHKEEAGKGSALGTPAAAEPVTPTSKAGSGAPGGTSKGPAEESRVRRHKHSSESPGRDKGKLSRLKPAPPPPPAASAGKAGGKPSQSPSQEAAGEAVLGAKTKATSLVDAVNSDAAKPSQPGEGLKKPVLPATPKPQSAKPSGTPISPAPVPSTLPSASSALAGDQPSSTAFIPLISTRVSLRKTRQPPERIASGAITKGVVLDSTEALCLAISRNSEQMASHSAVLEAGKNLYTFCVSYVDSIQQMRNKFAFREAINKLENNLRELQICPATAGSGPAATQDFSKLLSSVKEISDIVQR
T6 sequence (Q16288 32-839): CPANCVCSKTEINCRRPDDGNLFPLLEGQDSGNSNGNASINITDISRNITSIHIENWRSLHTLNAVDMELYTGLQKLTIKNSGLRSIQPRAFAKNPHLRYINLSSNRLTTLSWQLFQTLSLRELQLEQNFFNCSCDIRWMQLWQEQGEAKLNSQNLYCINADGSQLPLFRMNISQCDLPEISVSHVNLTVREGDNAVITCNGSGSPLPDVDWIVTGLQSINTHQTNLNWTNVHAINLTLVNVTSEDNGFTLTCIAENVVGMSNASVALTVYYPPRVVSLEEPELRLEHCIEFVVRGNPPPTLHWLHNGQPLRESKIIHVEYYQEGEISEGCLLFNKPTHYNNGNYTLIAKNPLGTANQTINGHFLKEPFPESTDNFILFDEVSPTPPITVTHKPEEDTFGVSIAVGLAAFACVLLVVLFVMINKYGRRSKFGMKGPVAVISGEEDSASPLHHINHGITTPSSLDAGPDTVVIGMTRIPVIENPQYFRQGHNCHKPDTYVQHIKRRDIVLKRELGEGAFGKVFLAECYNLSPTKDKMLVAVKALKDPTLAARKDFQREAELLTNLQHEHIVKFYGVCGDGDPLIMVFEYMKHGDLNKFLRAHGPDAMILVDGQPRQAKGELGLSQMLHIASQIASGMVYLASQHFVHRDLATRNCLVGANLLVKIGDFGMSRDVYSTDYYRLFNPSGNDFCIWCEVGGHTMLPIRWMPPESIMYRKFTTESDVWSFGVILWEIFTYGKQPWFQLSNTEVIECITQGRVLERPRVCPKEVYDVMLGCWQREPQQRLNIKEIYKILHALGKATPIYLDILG
T8 sequence (P06241 whole entry): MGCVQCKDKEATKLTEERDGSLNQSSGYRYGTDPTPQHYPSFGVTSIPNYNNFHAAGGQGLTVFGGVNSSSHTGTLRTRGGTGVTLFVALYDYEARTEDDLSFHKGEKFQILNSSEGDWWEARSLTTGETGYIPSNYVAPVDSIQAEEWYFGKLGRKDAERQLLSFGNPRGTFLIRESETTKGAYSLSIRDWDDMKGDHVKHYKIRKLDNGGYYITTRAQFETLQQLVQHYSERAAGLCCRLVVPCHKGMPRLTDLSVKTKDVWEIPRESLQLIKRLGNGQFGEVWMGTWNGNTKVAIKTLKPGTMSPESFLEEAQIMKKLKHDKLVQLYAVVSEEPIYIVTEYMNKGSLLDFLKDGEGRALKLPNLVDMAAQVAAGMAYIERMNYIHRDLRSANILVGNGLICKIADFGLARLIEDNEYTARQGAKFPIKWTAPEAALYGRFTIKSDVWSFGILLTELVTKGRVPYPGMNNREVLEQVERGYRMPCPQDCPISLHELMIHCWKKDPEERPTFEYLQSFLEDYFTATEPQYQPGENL

Usually pEC50 stands for the negative decadic logarithm of the EC50, by convention in mol/L. For orientation: pIC50 means the negative decadic logarithm of the IC50, by convention in mol/L. Broadly, the inhibition is the drop in the measured response relative to a control, in per cent. In the case of `CC(C)C(C)CNCc1ccc2c(c1)[nH]/c(=N\C(=O)c1ccc(C3=CN=NC3)s1)n2CC(C)(C)O` (centres unmarked) [BI 10N], on ITK (read-out: EC50 (selective inhibitor of ITK)), the pEC50 is 9.00. Further, the pIC50 on ITK (read-out: IC50 (inhibit ITK)) was 9.00; on ABL (Table 2, by Carna Biosciences), 7.63; against LCK (Table 2, by Carna Biosciences), 7.97; on FGFR1 (Table 2, by Carna Biosciences), 7.22; at TRKC it was 8.80; on IGF1R (Table 2, by Carna Biosciences) it was 6.05. Besides, the pIC50 against FYN was 7.62; at TRKA (TRKA, 1 mM ATP, Km ATP 65 μM) it was 9.08; at TRKA (TRKA, ATP at approximately the Km for ATP, more potent than can be measured), above 9.30; on TRKA (TRKA, Table 2, by Carna Biosciences), 9.34. Moreover, the “concentration at which formation of the phosphorylated (active) form of ITK is inhibited” value in assay [1] was at least 25 nM. The inhibition at 0.2 µM came out at 91.9% against ABL (single inhibitor concentration); 96.7% against LCK (single inhibitor concentration); 80.2% against FGFR1 (single inhibitor concentration); 19% against IGF1R (single inhibitor concentration); 106% at TRKA (TRKA, single inhibitor concentration). Besides, the “selectivity for ITK over TRKC” value at TRKC is “about 10 fold”. The “selectivity for ITK over TRKA” value on TRKA is “about 10 fold”. For the same compound, at TRKA (TRKA), the mode of inhibition entry is “time-dependent inhibitor”. In addition, the cell cycle profile entry is “No cell cycle changes” with PMWK (ITKLO) cells; “increased the percentage of cells in the G0/G1 phase and decreased the percentage of cells in the S phase” in the assay with RPMI 8322 (ITKHI) cells; “increased the percentage of cells in the G0/G1 phase and decreased the percentage of cells in the S phase” with VMM 39 (ITKHI) cells.
